The test system of the assay is WT Mtb Erdman strain. As to the kind of experiment: Microplate Alamar Blue Assay (MABA), Mtb growth inhibition. To be noted: Mycobacterium tuberculosis, ERDMAN, 168 h, Middlebrook 7H9 media, 7 days at 37° C. in 5% CO2. It counts as cell-based, Mycobacterium tuberculosis. For orientation: Resazurin is reduced to fluorescent resorufin, in cell work by metabolically active cells.

pIC50: −log10 of the molar value. Where only a bound is given, the exact number is not on record here.

What is called pIC50 is the IC50 on a negative log10 scale, so that one unit is a factor of ten. Low values mean a high IC50, high ones a low IC50. In the case of `Cc1cc2c(N[C@@H]3C[C@H]3c3ccc(F)c(F)c3)nc(-c3ncccn3)nc2s1` [Example 41, N-((1R,2S)-2-(3,4-difluorophenyl)cyclopropyl)-6-methyl-2-(pyrimidin-2-yl)thieno[2,3-d]pyrimidin-4-amine], the pIC50 is less than 5.00.

The compound `Cc1cc2c(N[C@@H]3C[C@H]3c3ccc(F)c(F)c3)nc(-c3nccs3)nc2s1` [Example 42, N-((1R,2S)-2-(3,4-difluorophenyl)cyclopropyl)-6-methyl-2-(thiazol-2-yl)thieno[2,3-d]pyrimidin-4-amine] had a pIC50 of 5.09. Compound `Cc1cc2c(N[C@@H]3C[C@H]3c3ccc(F)c(F)c3)nc(C3CC3)nc2s1` [Example 43, 2-cyclopropyl-N-((1R,2S)-2-(3,4-difluorophenyl)cyclopropyl)-6-methylthieno[2,3-d]pyrimidin-4-amine] showed a pIC50 of 5.62. Regarding `Cc1cc2c(N[C@@H]3C[C@H]3c3ccc(F)c(F)c3)nc(-c3cccnc3)nc2s1` [Example 44, N-((1R,2S)-2-(3,4-difluorophenyl)cyclopropyl)-6-methyl-2-(pyridin-3-yl)thieno[2,3-d]pyrimidin-4-amine], the pIC50 was 5.20. For `Fc1ccc([C@@H]2C[C@H]2Nc2nc(-c3ccccn3)nc3sc(C(F)(F)F)cc23)cc1F` [Example 45, N-((1R,2S)-2-(3,4-difluorophenyl)cyclopropyl)-2-(pyridin-2-yl)-6-(trifluoromethyl)thieno [2,3-d]pyrimidin-4-amine], the pIC50 is 5.55. With `Cc1cc2c(N[C@@H]3C[C@H]3c3ccc(F)c(F)c3)nc(-c3ccc(F)cn3)nc2s1` [Example 46, N-((1R,2S)-2-(3,4-difluorophenyl)cyclopropyl)-2-(5-fluoropyridin-2-yl)-6-methylthieno[2,3-d]pyrimidin-4-amine], the pIC50 was 5.66.

Compound `Cc1cc2c(N[C@@H]3C[C@H]3c3ccc(F)c(F)c3)nc(-c3ccncc3)nc2s1` [Example 47, N-((1R,2S)-2-(3,4-difluorophenyl)cyclopropyl)-6-methyl-2-(pyridin-4-yl)thieno[2,3-d]pyrimidin-4-amine] had a pIC50 of less than 5.06.

The compound `Cc1cc2c(NCCCc3ccc(C(F)(F)F)cc3)nc(C(F)(F)F)nc2s1` [Example 48, 6-methyl-2-(trifluoromethyl)-N-(3-(4-(trifluoromethyl)phenyl)propyl)thieno[2,3-d] pyrimidin-4-amine] had a pIC50 of 5.59. Consider `COc1ccc(CCCNc2nc(C(F)(F)F)nc3sc(C)cc23)cc1` [Example 49, N-(3-(4-methoxyphenyl)propyl)-6-methyl-2-(trifluoromethyl)thieno [2,3-d]pyrimidin-4-amine], for which the pIC50 is 5.70. `Cc1cc2c(N[C@@H]3C[C@H]3c3ccc(F)c(F)c3)nc(C(C)(F)F)nc2s1` [Example 50, 2-(1,1-difluoroethyl)-N-((1R,2S)-2-(3,4-difluorophenyl)cyclopropyl)-6-methylthieno[2,3-d]pyrimidin-4-amine] gave a pIC50 of 5.96. With `Cc1cc2c(NCCCc3ccccc3)nc(C(C)(C)C)nc2s1` [Example 51, 2-(tert-butyl)-6-methyl-N-(3-phenylpropyl)thieno [2,3-d]pyrimidin-4-amine], the pIC50 is less than 5.00.

For the compound `CCCc1nc(N[C@@H]2C[C@H]2c2ccc(F)c(F)c2)c2cc(C)sc2n1` [Example 52, N-((1R,2S)-2-(3,4-difluorophenyl)cyclopropyl)-6-methyl-2-propylthieno[2,3-d]pyrimidin-4-amine], the pIC50 was 6.09. For the compound `CSc1nc(N[C@@H]2C[C@H]2c2ccc(F)c(F)c2)c2cc(C)sc2n1` [Example 53, N-((1R,2S)-2-(3,4-difluorophenyl)cyclopropyl)-6-methyl-2-(methylthio)thieno[2,3-d]pyrimidin-4-amine], the pIC50 was 6.62.

For `CCCc1nc(NCCCc2ccccc2)c2cc(C)sc2n1` [Example 54, 6-methyl-N-(3-phenylpropyl)-2-propylthieno[2,3-d]pyrimidin-4-amine], the pIC50 was 6.51. Turning to `CSc1nc(NCCCc2ccccc2)c2cc(C)sc2n1` [Example 55, 6-methyl-2-(methylthio)-N-(3-phenylpropyl)thieno [2,3-d]pyrimidin-4-amine], the pIC50 is 7.77. In the case of `Cc1cc2c(N[C@@H]3C[C@H]3c3ccc(F)c(F)c3)nc(-c3ccc(F)cc3)nc2s1` [Example 56, N-((1R,2S)-2-(3,4-difluorophenyl)cyclopropyl)-2-(4-fluorophenyl)-6-methylthieno[2,3-d]pyrimidin-4-amine], the pIC50 is 5.38.

`Cc1cc2c(NCCCc3ccccc3)nc(-c3ncco3)nc2s1` [Example 57, 6-methyl-2-(oxazol-2-yl)-N-(3-phenylpropyl)thieno [2,3-d]pyrimidin-4-amine] gave a pIC50 of 5.39.

As to `Cc1cc2c(NCCCc3ccccc3)nc(C3(N)CC3)nc2s1` [Example 58, 2-(1-aminocyclopropyl)-6-methyl-N-(3-phenylpropyl)thieno [2,3-d]pyrimidin-4-amine], the pIC50 is 5.30. Regarding `CCc1nc(NCCCc2ccc(F)c(F)c2)c2cc(C)sc2n1` [Example 59, N-(3-(3,4-difluorophenyl)propyl)-2-ethyl-6-methylthieno[2,3-d]pyrimidin-4-amine], the pIC50 is 6.37. `Cc1cc2c(NCCCc3ccc(F)c(F)c3)nc(C(F)(F)F)nc2s1` [Example 60, N-(3-(3,4-difluorophenyl)propyl)-6-methyl-2-(trifluoromethyl)thieno [2,3-d]pyrimidin-4-amine] had a pIC50 of 5.31. For `CCc1nc(NC/C=C/c2ccccc2)c2cc(C)sc2n1` [Example 61, N-cinnamyl-2-ethyl-6-methylthieno[2,3-d]pyrimidin-4-amine], the pIC50 was 7.15.

Consider `CCc1nc(NCCNc2ccccc2)c2cc(C)sc2n1` [Example 62, N1-(2-ethyl-6-methylthieno[2,3-d]pyrimidin-4-yl)-N2-phenylethane-1,2-diamine], for which the pIC50 is 6.09. For the compound `Cc1cc2c(NCCCc3ccccc3)nc(-c3cccs3)nc2s1` [Example 63, 6-methyl-N-(3-phenylpropyl)-2-(thiophen-2-yl)thieno[2,3-d]pyrimidin-4-amine], the pIC50 is 5.72. `CCc1nc(NCCCOc2ccccc2)c2cc(C)sc2n1` [Example 64, 2-ethyl-6-methyl-N-(3-phenoxypropyl)thieno [2,3-d]pyrimidin-4-amine] gave a pIC50 of 5.77. In turn, `CCc1nc(NCCOc2ccc(Br)cc2)c2cc(C)sc2n1` [Example 65, N-(2-(4-bromophenoxy)ethyl)-2-ethyl-6-methylthieno[2,3-d]pyrimidin-4-amine] showed a negative logarithm of the IC50 (pIC50) of 5.55. The compound `CCc1nc(NCCC(C)(C)c2ccccc2)c2cc(C)sc2n1` [Example 66, 2-ethyl-6-methyl-N-(3-methyl-3-phenylbutyl)thieno [2,3-d]pyrimidin-4-amine] gave a pIC50 of 5.22.

In the case of `CCc1nc(NCCc2ccc(O)cc2)c2cc(C)sc2n1` [Example 67, 4-(2-((2-ethyl-6-methylthieno[2,3-d]pyrimidin-4-yl)amino)ethyl)phenol], the pIC50 is less than 5.00.

`CCc1nc(NCCS(=O)(=O)c2ccccc2)c2cc(C)sc2n1` [Example 68, 2-ethyl-6-methyl-N-(2-(phenylsulfonyl)ethyl) thieno[2,3-d]pyrimidin-4-amine] had a pIC50 of less than 5.00. `CCc1nc(NCCCOc2ccc(Cl)cc2)c2cc(C)sc2n1` [Example 69, N-(3-(4-chlorophenoxy)propyl)-2-ethyl-6-methylthieno[2,3-d]pyrimidin-4-amine]: the pIC50 is 5.96.

(Values after patent US20240279236A1, “COMPOUNDS AND METHODS OF TREATING TUBERCULOSIS” (Fimbrion Therapeutics, Inc., priority 2021, published 2024).)
